Source: PubChem BioAssay AID1845196 (Molecular Pharmacology Branch, DTP, NCI, 2023)

Test system: 292921-168-R tumor spheroid viability
Experiment: Anticancer human tumor 292921-168-R patient-derived pancreatic carcinoma cell line growth inhibition
Conditions: spheroids with HUVEC and MSC; for IC50: curve of first compound; for viability, T/C: stronger effect = lower value; active means viability on the fitted dose curve at most 10% of control; inactive means the rest
Description: Multicellular complex tumor spheroid response to DNA repair inhibitors in combination with DNA-damaging drugs
This study explores the anticancer activities of DNA-damaging drugs and inhibitors of DNA damage repair, both as single agents and in combinations. Complex tumor spheroids comprised of malignant cells, endothelial cells and mesenchymal stem cells served as an in vitro model for human solid tumors. This model system incorporates physiologically relevant features and patient-derived or established malignant cell lines with clinically relevant genetic alterations from many tumor types. Twenty-six patient-derived or established malignant cell lines were evaluated representing sarcoma, melanoma, small cell lung cancer (SCLC), non-small cell lung cancer (NSCLC), as well as bladder, ovarian and pancreatic cancers. The concentration ranges selected for each drug and investigational agent were based upon clinically achievable concentrations if the clinical Cmax of the agent was known.
Compounds. The drugs and compounds olaparib (NSC753686), talazoparib (NSC767125), berzosertib (NSC777718), elimusertib (NSC800525), nedisertib (NSC802822), VX-984 (NSC792969), AZD-1390 (NSC803789), temozolomide (NSC362856), topotecan (NSC609699), trabectedin (NSC813783), staurosporine (NSC755774), and gemcitabine (NSC613327) were obtained from the National Cancer Institute (NCI) Developmental Therapeutics Program Chemical Repository. The FDA-approved anticancer drug set is available from the Developmental Therapeutics Program at https://dtp.cancer.gov/organization/dscb/obtaining/available_plates.htm. […] The stock solutions were prepared in dimethyl sulfoxide (DMSO, Sigma-Aldrich, St. Louis, MO, cat. D2650) at 400-fold the tested concentration and stored at -70 degrees C. Prior to their use, the stock solutions were diluted in fresh medium and the final DMSO concentration in the assay was 0.25% (v/v). All drugs and investigational agents were tested over a range starting from a high concentration at or near the clinical Cmax and decreasing in half-log increments. If the clinical Cmax for an agent had not been determined, the highest concentration tested was 10 microM.
Cell Lines. The patient-derived cancer cell (PDC) lines: 156681-154-R-J1-PDC, 283228-195-R-J1-PDC, 287954-098-R-J1-PDC, 292921-168-R-J2-PDC, 349418-098-R-PDC, 425362-245-T-J1-PDC, 556581-035-R-J1-PDC, and BL0293-F563-PDC were received from the NCI Patient-Derived Models Repository (PDMR, https://pdmr.cancer.gov). The established cell lines HS-SY-2 (RRID:CVCL_8719), MPNST, and SYO-1 (RRID:CVCL_7146) were obtained from the Sloan Kettering Institute. The alveolar soft parts sarcoma cell line ASPS-1 (RRID:CVCL_S738) was established at the NCI and grown from internal seed stocks. The following established cell lines were purchased from the American Type Culture Collection (ATCC, Manassas, VA): G-401 (ATCC, cat. CRL-1441, RRID:CVCL_0270), SW982 (ATCC, cat. HTB-93, RRID:CVCL_1734), VA-ES-BJ (ATCC, cat. CRL-2138, RRID:CVCL_1785), NCI-H719 (ATCC, cat. CRL-5837, RRID:CVCL_1582), NCI-H196 (ATCC, cat. CRL-5823, RRID:CVCL_1509), NCI-H841 (ATCC, cat. CRL-5845, RRID:CVCL_1595), NCI-H1618 (ATCC, cat. CRL-5879, RRID:CVCL_1480), NCI-H1876 (ATCC, cat. CRL-5902, RRID:CVCL_1503), DMS 114 (ATCC, cat. CRL-2066; RRID:CVCL_1174), NCI-H211 (ATCC, cat. CRL-5824; RRID:CVCL_1529), and SW 1271 (ATCC, cat. CRL-2177, RRID:CVCL_1716). The small cell lung cancer cell line COR-L88 was purchased from Sigma-Aldrich (cat. 92031917-1VL, RRID:CVCL_1141). The non-small cell lung cancer cell lines NCI-H226 (RRID:CVCL_1544) and NCI-H322M (RRID:CVCL_1557) were established at the NCI and grown from internal seed stocks. Pooled donor human umbilical vein endothelial cells (HUVEC, Lonza, cat. CC-2519) and human mesenchymal stem cells (hMSC, Lonza, cat. PT-2501) were purchased from Lonza (Walkersville, MD).
Cell Culture. All cells were maintained in an incubator at 37 degrees C and 5% CO2 with 95% humidity. […]
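Further: spheroids exposed to compounds for 7 days.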

Cn1ncnc1[C@H]1c2n[nH]c(=O)c3cc(F)cc(c23)N[C@@H]1c1ccc(F)cc1 + CC[C@@]1(O)C(=O)OCc2c1cc1n(c2=O)Cc2cc3c(CN(C)C)c(O)ccc3nc2-1
< 9.49 nM: IC50 (second compound 0.03 µM) | IC50 (second compound 0.0949 µM) | IC50 (second compound 0.3 µM)
active: viability, T/C (second compound 0.03 µM, first compound 3 µM) 8.5% | viability, T/C (second compound 0.0949 µM, first compound 0.0949 µM) 9.81% | viability, T/C (second compound 0.0949 µM, first compound 0.3 µM) 8.52% | viability, T/C (second compound 0.0949 µM, first compound 0.949 µM) 7.84% | viability, T/C (second compound 0.0949 µM, first compound 3 µM) 5.32% | viability, T/C (second compound 0.3 µM, first compound 0.00949 µM) 4.91% | viability, T/C (second compound 0.3 µM, first compound 0.03 µM) 5.12% | viability, T/C (second compound 0.3 µM, first compound 0.0949 µM) 4.52% | viability, T/C (second compound 0.3 µM, first compound 0.3 µM) 4.48% | viability, T/C (second compound 0.3 µM, first compound 0.949 µM) 3.83% | viability, T/C (second compound 0.3 µM, first compound 3 µM) 2.41%
181 nM: IC50 (second compound 0.003 µM)
inactive: viability, T/C (second compound 0.003 µM, first compound 0.00949 µM) 82.7% | viability, T/C (second compound 0.003 µM, first compound 0.03 µM) 73.9% | viability, T/C (second compound 0.003 µM, first compound 0.0949 µM) 57.4% | viability, T/C (second compound 0.003 µM, first compound 0.3 µM) 41% | viability, T/C (second compound 0.003 µM, first compound 0.949 µM) 31.4% | viability, T/C (second compound 0.003 µM, first compound 3 µM) 12% | viability, T/C (second compound 0.00949 µM, first compound 0.00949 µM) 52.6% | viability, T/C (second compound 0.00949 µM, first compound 0.03 µM) 44.7% | viability, T/C (second compound 0.00949 µM, first compound 0.0949 µM) 33.8% | viability, T/C (second compound 0.00949 µM, first compound 0.3 µM) 30.1% | viability, T/C (second compound 0.00949 µM, first compound 0.949 µM) 19.5% | viability, T/C (second compound 0.00949 µM, first compound 3 µM) 12.9% | viability, T/C (second compound 0.03 µM, first compound 0.00949 µM) 23.6% | viability, T/C (second compound 0.03 µM, first compound 0.03 µM) 21.1% | viability, T/C (second compound 0.03 µM, first compound 0.0949 µM) 17.4% | viability, T/C (second compound 0.03 µM, first compound 0.3 µM) 16.9% | viability, T/C (second compound 0.03 µM, first compound 0.949 µM) 14.5% | viability, T/C (second compound 0.0949 µM, first compound 0.00949 µM) 11% | viability, T/C (second compound 0.0949 µM, first compound 0.03 µM) 10.7%
13.3 nM: IC50 (second compound 0.00949 µM)
